According to US20240158446A1, “CYCLIC COMPOUND HAVING SELECTIVE INHIBITORY ACTION ON KRAS OVER HRAS AND NRAS” (CHUGAI SEIYAKU KABUSHIKI KAISHA, priority 2021, published 2024):

What was measured:
[1] = molecular target: GDP-bound HRAS wild-type protein (Homo sapiens, UniProt P01112); test: Binding to HRAS by surface plasmon resonance (SPR), Single Cycle Kinetics; conditions: ratio of KD for GDP-bound HRAS wild-type protein to KD for KRAS, SPR
[2] = molecular target: GDP-bound NRAS wild-type protein (Homo sapiens, UniProt P01111); test: Binding to NRAS by surface plasmon resonance (SPR), Single Cycle Kinetics; conditions: ratio of KD for GDP-bound NRAS wild-type protein to KD for KRAS, SPR
[3] = molecular target: GDP-bound KRAS wild-type protein (Homo sapiens, UniProt P01116); test: Binding to KRAS by surface plasmon resonance (SPR), Single Cycle Kinetics; conditions: SPR, Single Cycle Kinetics, GDP-bound KRAS wild-type protein; read-out: KRAS KD
[4] = system: human lung cancer strain NCI-H441; test: cells; conditions: NCI-H441, 96 h, read-out: NCI-H441 IC50 (nM), NCI-H441 cell proliferation, 4 days, CellTiter-Glo;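 note: cell proliferation inhibition after four days measured by CellTiter-Glo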

Chain of GDP-bound KRAS wild-type protein (P01116 whole entry): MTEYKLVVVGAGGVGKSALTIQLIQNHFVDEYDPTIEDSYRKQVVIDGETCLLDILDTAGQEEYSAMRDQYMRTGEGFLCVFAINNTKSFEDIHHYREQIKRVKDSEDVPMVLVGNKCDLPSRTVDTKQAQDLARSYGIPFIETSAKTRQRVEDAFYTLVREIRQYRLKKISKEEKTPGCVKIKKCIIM
Chain of GDP-bound HRAS wild-type protein (P01112 whole entry): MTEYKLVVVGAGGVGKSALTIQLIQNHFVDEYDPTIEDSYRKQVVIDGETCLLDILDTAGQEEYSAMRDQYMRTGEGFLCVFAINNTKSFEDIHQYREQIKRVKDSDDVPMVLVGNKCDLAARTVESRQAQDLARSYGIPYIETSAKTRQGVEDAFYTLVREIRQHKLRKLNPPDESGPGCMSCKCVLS
Chain of GDP-bound NRAS wild-type protein (P01111 whole entry): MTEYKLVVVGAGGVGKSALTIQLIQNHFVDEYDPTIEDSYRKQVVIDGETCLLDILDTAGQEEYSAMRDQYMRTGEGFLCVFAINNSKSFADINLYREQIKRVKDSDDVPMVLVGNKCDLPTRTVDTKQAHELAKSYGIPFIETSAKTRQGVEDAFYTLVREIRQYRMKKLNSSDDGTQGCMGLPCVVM

| Structure (SMILES) | HRAS/KRAS (KD ratio) [1] | NRAS/KRAS (KD ratio) [2] | Kd [3] [nM] | IC50 [4] [nM] |
| --- | --- | --- | --- | --- |
| CCO[C@@H]1C[C@H]2C(=O)NC3(CC(C)(C)C3)C(=O)N(C)[C@@H](C3CCCC3)C(=O)N(CC)[C@H](C(=O)N(C)C)CC(=O)N(C)[C@@H](CC(C)C)C(=O)N[C@@H]([C@@H](C)CC)C(=O)NCC(=O)N(C)[C@H]3C/C=C\CCN(C3=O)[C@@H](Cc3ccc(C(F)(F)F)cc3)C(=O)N(C)CC(=O)N[C@@H](CCc3cc(F)c(C(F)(F)F)c(F)c3)C(=O)N2C1 [PP1773] | A (a compound having 10 or more and less than 20 is denoted as A) | A (a compound having 10 or more and less than 20 is denoted as A) | 0.53 | 39.9 |
| CC[C@H](C)[C@@H]1NC(=O)[C@H](CC(C)C)N(C)C(=O)C[C@@H](C(=O)N(C)C)N(C)C(=O)[C@H](C2CCCC2)N(C)C(=O)C2(CC(C)(C)C2)NC(=O)CN(C)C(=O)[C@H](CCc2cc(F)c(C(F)(F)F)c(F)c2)NC(=O)CN(C)C(=O)[C@H](Cc2ccc(C(F)(F)F)cc2)N2CC/C=C\C[C@@H](C2=O)N(C)C(=O)CN(C)C1=O [PP1776] | A (a compound having 10 or more and less than 20 is denoted as A) | A (a compound having 10 or more and less than 20 is denoted as A) | 0.54 | 98.7 |
| CCC[C@H]1C(=O)N[C@@H]([C@@H](C)CC)C(=O)N(C)CC(=O)N(C)[C@H]2C/C=C\CCN(C2=O)[C@@H](Cc2ccc(C(F)(F)F)cc2)C(=O)N(C)CC(=O)N[C@@H](CCc2cc(F)c(C(F)(F)F)c(F)c2)C(=O)N(CC)CC(=O)NC2(CC(C)(C)C2)C(=O)N(C)[C@@H](C2CCCC2)C(=O)N(C)[C@H](C(=O)N(C)C)CC(=O)N1C [PP1777] | B (a compound having 3 or more and less than 10 is denoted as B) | A (a compound having 10 or more and less than 20 is denoted as A) | 0.36 | 79.3 |
| CCO[C@@H]1C[C@H]2C(=O)N(C)C3(CCC3)C(=O)N(C)[C@@H](C3CCCC3)C(=O)N(C)[C@H](C(=O)N(C)C)CC(=O)N(C)[C@@H](CC)C(=O)N[C@@H]([C@@H](C)CC)C(=O)N(C)CC(=O)N(C)[C@H]3C/C=C\CCN(C3=O)[C@@H](Cc3ccc(C(F)(F)F)cc3)C(=O)N(C)CC(=O)N[C@@H](CCc3cc(F)c(C(F)(F)F)c(F)c3)C(=O)N2C1 [PP1779] | B (a compound having 3 or more and less than 10 is denoted as B) | A (a compound having 10 or more and less than 20 is denoted as A) | 0.034 | 5.4 |
| CC[C@H](C)[C@@H]1NC(=O)[C@H](CC)N(C)C(=O)C[C@@H](C(=O)N(C)C)N(C)C(=O)[C@H](C2CCCC2)N(C)C(=O)C2(CCC2)N(C)C(=O)[C@@H]2CCCN2C(=O)[C@H](CCc2cc(F)c(C(F)(F)F)c(F)c2)NC(=O)CN(C)C(=O)[C@H](Cc2ccc(C(F)(F)F)cc2)N2CC/C=C\C[C@@H](C2=O)N(C)C(=O)CN(C)C1=O [PP1780] | A (a compound having 10 or more and less than 20 is denoted as A) | A (a compound having 10 or more and less than 20 is denoted as A) | 0.065 | 8.2 |
| CCO[C@@H]1C[C@H]2C(=O)N(C)C3(CCC3)C(=O)N(C)[C@@H](C3CCCC3)C(=O)N(C)[C@H](C(=O)N(C)C)CC(=O)N(C)[C@@H](CC)C(=O)N[C@@H]([C@@H](C)CC)C(=O)N(C)CC(=O)N(C)[C@H]3C/C=C\CCN(C3=O)[C@@H](Cc3ccc(C)cc3)C(=O)N(C)CC(=O)N[C@@H](CCc3cc(F)c(C(F)(F)F)c(F)c3)C(=O)N2C1 [PP1781] | B (a compound having 3 or more and less than 10 is denoted as B) | A (a compound having 10 or more and less than 20 is denoted as A) | 0.024 | 2.1 |
| CCO[C@@H]1C[C@H]2C(=O)N(C)C3(CCC3)C(=O)N(C)[C@@H](C3CCCC3)C(=O)N(C)[C@H](C(=O)N(C)C)CC(=O)N(C)[C@@H](C3CC3)C(=O)N[C@@H]([C@@H](C)CC)C(=O)N(C)CC(=O)N(C)[C@H]3C/C=C\CCN(C3=O)[C@@H](Cc3ccc(C)cc3)C(=O)N(C)CC(=O)N[C@@H](CCc3cc(F)c(C(F)(F)F)c(F)c3)C(=O)N2C1 [PP1783] | B (a compound having 3 or more and less than 10 is denoted as B) | A (a compound having 10 or more and less than 20 is denoted as A) | 0.028 | 3.5 |
| CC[C@H](C)[C@@H]1NC(=O)[C@H](C2CC2)N(C)C(=O)C[C@@H](C(=O)N(C)C)N(C)C(=O)[C@H](C2CCCC2)N(C)C(=O)C2(CCC2)N(C)C(=O)[C@@H]2CCCN2C(=O)[C@H](CCc2cc(F)c(C(F)(F)F)c(F)c2)NC(=O)CN(C)C(=O)[C@H](Cc2ccc(C)cc2)N2CC/C=C\C[C@@H](C2=O)N(C)C(=O)CN(C)C1=O [PP1784] | B (a compound having 3 or more and less than 10 is denoted as B) | A (a compound having 10 or more and less than 20 is denoted as A) | 0.083 | 7.8 |
| CCO[C@@H]1C[C@H]2C(=O)N(C)C3(CCC3)C(=O)N(C)[C@@H](C3CCCC3)C(=O)N(C)[C@H](C(=O)N(C)C)CC(=O)N(C)[C@@H](CC)C(=O)N[C@@H]([C@@H](C)CC)C(=O)N3CCC[C@H]3C(=O)N(C)[C@H]3C/C=C\CCN(C3=O)[C@@H](Cc3ccc(C)cc3)C(=O)N(C)CC(=O)N[C@@H](CCc3cc(F)c(C(F)(F)F)c(F)c3)C(=O)N2C1 [PP1785] | A (a compound having 10 or more and less than 20 is denoted as A) | A (a compound having 10 or more and less than 20 is denoted as A) | 0.051 | 6.9 |
| CC[C@H](C)[C@@H]1NC(=O)[C@H](CC)N(C)C(=O)C[C@@H](C(=O)N(C)C)N(C)C(=O)[C@H](C2CCCC2)N(C)C(=O)C2(CCC2)N(C)C(=O)[C@@H]2CCCN2C(=O)[C@H](CCc2cc(F)c(C(F)(F)F)c(F)c2)NC(=O)CN(C)C(=O)[C@H](Cc2ccc(C)cc2)N2CC/C=C\C[C@@H](C2=O)N(C)C(=O)[C@@H]2CCCN2C1=O [PP1786] | B (a compound having 3 or more and less than 10 is denoted as B) | A (a compound having 10 or more and less than 20 is denoted as A) | 0.14 | 11.4 |
| CC[C@H](C)[C@@H]1NC(=O)[C@H](CC)N(C)C(=O)C[C@@H](C(=O)N(C)C)N(C)C(=O)[C@H](C2CCCC2)N(C)C(=O)C2(CCC2)N(C)C(=O)[C@@H]2C[C@@H](C)CN2C(=O)[C@H](CCc2cc(F)c(C(F)(F)F)c(F)c2)NC(=O)CN(C)C(=O)[C@H](Cc2ccc(C)cc2)N2CC/C=C\C[C@@H](C2=O)N(C)C(=O)[C@@H]2CCCN2C1=O [PP1789] | A (a compound having 10 or more and less than 20 is denoted as A) | A (a compound having 10 or more and less than 20 is denoted as A) | 0.13 | 9.5 |
| CCO[C@@H]1C[C@H]2C(=O)N(C)C3(CCC3)C(=O)N(C)[C@@H](C3CCCC3)C(=O)N(C)[C@H](C(=O)N(C)C)CC(=O)N(C)[C@@H](CC(C)C)C(=O)N[C@@H]([C@@H](C)CC)C(=O)N(C)CC(=O)N(C)[C@H]3C/C=C\CCN(C3=O)[C@@H](Cc3ccc(C)cc3)C(=O)N(C)CC(=O)N[C@@H](CCc3cc(F)c(C(F)(F)F)c(F)c3)C(=O)N2C1 [PP1790] | B (a compound having 3 or more and less than 10 is denoted as B) | A (a compound having 10 or more and less than 20 is denoted as A) | 0.03 | 1.7 |
| CCC[C@H]1C(=O)N[C@@H]([C@@H](C)CC)C(=O)N(C)CC(=O)N(C)[C@H]2C/C=C\CCN(C2=O)[C@@H](Cc2ccc(C)cc2)C(=O)N(C)CC(=O)N[C@@H](CCc2cc(F)c(C(F)(F)F)c(F)c2)C(=O)N2C[C@H](OCC)C[C@H]2C(=O)N(C)C2(CCC2)C(=O)N(C)[C@@H](C2CCCC2)C(=O)N(C)[C@H](C(=O)N(C)C)CC(=O)N1C [PP1793] | B (a compound having 3 or more and less than 10 is denoted as B) | A (a compound having 10 or more and less than 20 is denoted as A) | 0.023 | 2.4 |
| CCO[C@@H]1C[C@H]2C(=O)N(C)C3(CCC3)C(=O)N(C)[C@@H](C3CCCC3)C(=O)N(C)[C@H](C(=O)N(C)C)CC(=O)N(C)[C@@H](CC3CC3)C(=O)N[C@@H]([C@@H](C)CC)C(=O)N3CCC[C@H]3C(=O)N(C)[C@H]3C/C=C\CCN(C3=O)[C@@H](Cc3ccc(C)cc3)C(=O)N(C)CC(=O)N[C@@H](CCc3cc(F)c(C(F)(F)F)c(F)c3)C(=O)N2C1 [PP1797] | A (a compound having 10 or more and less than 20 is denoted as A) | A (a compound having 10 or more and less than 20 is denoted as A) | 0.1 | 5.1 |
| CC[C@H](C)[C@@H]1NC(=O)[C@H](CC2CC2)N(C)C(=O)C[C@@H](C(=O)N(C)C)N(C)C(=O)[C@H](C2CCCC2)N(C)C(=O)C2(CCC2)N(C)C(=O)[C@@H]2CCCN2C(=O)[C@H](CCc2cc(F)c(C(F)(F)F)c(F)c2)NC(=O)CN(C)C(=O)[C@H](Cc2ccc(C)cc2)N2CC/C=C\C[C@@H](C2=O)N(C)C(=O)[C@@H]2CCCN2C1=O [PP1798] | B (a compound having 3 or more and less than 10 is denoted as B) | A (a compound having 10 or more and less than 20 is denoted as A) | 0.15 | 7.8 |
| CCC[C@H]1C(=O)N[C@@H]([C@@H](C)CC)C(=O)N(C)CC(=O)N(C)[C@H]2C/C=C\CCN(C2=O)[C@@H](Cc2ccc(C)cc2)C(=O)N(C)CC(=O)N[C@@H](CCc2cc(F)c(C(F)(F)F)c(F)c2)C(=O)N2C[C@H](C)C[C@H]2C(=O)N(C)C2(CCC2)C(=O)N(C)[C@@H](C2CCCC2)C(=O)N(C)[C@H](C(=O)N(C)C)CC(=O)N1C [PP1799] | B (a compound having 3 or more and less than 10 is denoted as B) | B (a compound having 3 or more and less than 10 is denoted as B) | 0.068 | 7.6 |
